Reference: ChEMBL document CHEMBL2176906, “Diterpenoids isolated from Sideritis species protect astrocytes against oxidative stress via Nrf2” (J Nat Prod, 2012)
Calls of active or inactive are those of the source. No cut-off for these calls is given here.

Key:
[1] = Cytotoxicity against human U373MG cells at 1 to 100 uM after 24 hrs by LDH assay; format: cell-based; details: u-373mg atcc
[2] = Cytotoxicity against human U373MG cells at 1 to 100 uM after 24 hrs by MTT assay; format: cell-based; details: u-373mg atcc
[3] = target: T1, Nuclear factor erythroid 2-related factor 2 (Homo sapiens) (UniProt Q16236); test: Induction of Nrf2-mediated CAT protein expression in H2O2-stimulated human U373MG cells preincubated at 5 uM for 24 hrs before H2O2 challenge by Western blot method; format: cell-based; details: U-373MG ATCC
T1 sequence (whole entry): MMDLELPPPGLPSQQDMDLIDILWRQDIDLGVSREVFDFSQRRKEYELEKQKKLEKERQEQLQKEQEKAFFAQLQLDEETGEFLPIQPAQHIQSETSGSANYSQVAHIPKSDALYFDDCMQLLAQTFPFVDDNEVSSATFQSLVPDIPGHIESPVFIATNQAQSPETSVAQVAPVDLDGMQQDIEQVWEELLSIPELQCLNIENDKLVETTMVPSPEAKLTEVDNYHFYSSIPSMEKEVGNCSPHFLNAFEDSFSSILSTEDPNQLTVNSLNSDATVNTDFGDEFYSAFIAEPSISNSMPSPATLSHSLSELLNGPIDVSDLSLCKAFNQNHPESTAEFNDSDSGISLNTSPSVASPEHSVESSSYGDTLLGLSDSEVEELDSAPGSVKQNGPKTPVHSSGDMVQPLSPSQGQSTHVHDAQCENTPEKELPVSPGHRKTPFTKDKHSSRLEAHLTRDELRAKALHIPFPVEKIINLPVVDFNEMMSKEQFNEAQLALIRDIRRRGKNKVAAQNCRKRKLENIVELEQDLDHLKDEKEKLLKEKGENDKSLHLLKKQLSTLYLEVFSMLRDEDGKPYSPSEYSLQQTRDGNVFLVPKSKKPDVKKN

[4] = Antioxidant activity in human U373MG cells assessed as reduction in H2O2-induced ROS production preincubated at 5 to 10 uM for 24 hrs before H2O2 challenge by DCFH-DA assay relative to untreated control; format: functional, U-373MG ATCC
[5] = target: T1, Nuclear factor erythroid 2-related factor 2 (Homo sapiens); test: Induction of Nrf2-mediated HO-1 protein expression in H2O2-stimulated human U373MG cells preincubated at 10 uM for 24 hrs before H2O2 challenge by Western blot method; format: cell-based; details: U-373MG ATCC
[6] = target: T1, Nuclear factor erythroid 2-related factor 2 (Homo sapiens); test: Induction of Nrf2-mediated HO-1 protein expression in H2O2-stimulated human U373MG cells preincubated at 5 uM for 24 hrs before H2O2 challenge by Western blot method; format: cell-based; details: U-373MG ATCC
[7] = target: T1, Nuclear factor erythroid 2-related factor 2 (Homo sapiens); test: Induction of Nrf2-mediated glutathione reductase protein expression in H2O2-stimulated human U373MG cells preincubated at 10 uM for 24 hrs before H2O2 challenge by Western blot method; format: cell-based; details: U-373MG ATCC
[8] = target: T1, Nuclear factor erythroid 2-related factor 2 (Homo sapiens); test: Induction of Nrf2-mediated glutathione reductase protein expression in H2O2-stimulated human U373MG cells preincubated at 5 uM for 24 hrs before H2O2 challenge by Western blot method; format: cell-based; details: U-373MG ATCC
[9] = tested on: U373 MG; test: Induction of HO-1 activity in human U373MG cells assessed as bilirubin production per mg protein preincubated at 5 uM for 24 hrs before H2O2 challenge by fluorimetric method (reference value: 19.6 +/-3.5 pmol/hr/mg protein); format: functional, U-373MG ATCC
[10] = tested on: U373 MG; test: Induction of Glutathione reductase activity in human U373MG cells assessed as […] per mg protein preincubated at 5 uM for 24 hrs before H2O2 challenge by fluorimetric method (reference value: 9.3 +/- 2.2 nmol/min/mg protein); format: functional, U-373MG ATCC
[11] = tested on: U373 MG; test: Induction of SOD activity in human U373MG cells assessed per mg protein preincubated at 10 uM for 24 hrs before H2O2 challenge by fluorimetric method (reference value: 14.2 +/- 3 UI/mg protein); format: functional, U-373MG ATCC
[12] = tested on: U373 MG; test: Induction of CAT activity in human U373MG cells assessed per mg protein preincubated at 5 uM for 24 hrs before H2O2 challenge by fluorimetric method (reference value: 18.9 +/- 0.4 UI/mg protein); format: functional, U-373MG ATCC
[13] = tested on: U373 MG; test: Inhibition of H2O2-induced oxidative stress in human U373MG cells assessed as GSH/GSSG ratio at 10 uM (reference value: 1.8 +/- 0.1 ); format: functional, U-373MG ATCC
[14] = tested on: U373 MG; test: Inhibition of H2O2-induced lipid peroxidation in human U373MG cells assessed as reduction in MDA levels per mg protein at 5 uM by HPLC analysis (reference value: 0.95 +/- 0.03 nmol/mg protein); format: functional, U-373MG ATCC
[15] = tested on: U373 MG; test: Induction of ROS production in human U373MG cells at 5 uM after 24 hrs by DCFH-DA assay; format: functional, cell-based; details: U-373MG ATCC
[16] = tested on: U-373MG ATCC; test: Antioxidant activity in human U373MG cells assessed as reduction in H2O2-induced morphological changes preincubated at 10 uM for 24 hrs before H2O2 challenge by phase-contrast microscopy; format: functional, cell-based
[17] = tested on: U-373MG ATCC; test: Antioxidant activity in human U373MG cells assessed as reduction in H2O2-induced cytotoxicity preincubated for 24 hrs before H2O2 challenge by LDH assay; format: functional, cell-based
[18] = tested on: U-373MG ATCC; test: Antioxidant activity in human U373MG cells assessed as reduction in H2O2-induced cytotoxicity preincubated for 24 hrs before H2O2 challenge by MTT assay; format: functional, cell-based
[19] = Cytotoxicity against human U373MG cells assessed as LDH release at 1 to 10 uM after 24 hrs by LDH assay; format: cell-based; details: u-373mg atcc
[20] = Cytotoxicity against human U373MG cells at > 50 uM after 24 hrs by MTT assay; format: cell-based; details: u-373mg atcc
[21] = tested on: U-373MG ATCC; test: Antioxidant activity in human U373MG cells assessed as reduction in H2O2-induced ROS production preincubated at 10 uM for 24 hrs before H2O2 challenge by DCFH-DA assay; format: functional, cell-based
[22] = tested on: U-373MG ATCC; test: Antioxidant activity in human U373MG cells assessed as reduction in H2O2-induced ROS production preincubated at 5 uM for 24 hrs before H2O2 challenge by DCFH-DA assay; format: functional, cell-based
[23] = tested on: U-373MG ATCC; test: Antioxidant activity in human U373MG cells assessed as reduction in H2O2-induced cytotoxicity preincubated at 5 uM for 24 hrs before H2O2 challenge by MTT assay; format: functional, cell-based
[24] = Cytotoxicity against human U373MG cells at > 10 uM after 24 hrs by MTT assay; format: cell-based; details: u-373mg atcc
[25] = tested on: U-373MG ATCC; test: Antioxidant activity in human U373MG cells assessed as reduction in H2O2-induced cytotoxicity preincubated at 10 uM for 24 hrs before H2O2 challenge by LDH assay; format: functional, cell-based
[26] = tested on: U-373MG ATCC; test: Antioxidant activity in human U373MG cells assessed as reduction in H2O2-induced cytotoxicity preincubated at 5 uM for 24 hrs before H2O2 challenge by LDH assay; format: functional, cell-based
[27] = tested on: U-373MG ATCC; test: Antioxidant activity in human U373MG cells assessed as reduction in H2O2-induced cytotoxicity preincubated at 10 uM for 24 hrs before H2O2 challenge by MTT assay; format: functional, cell-based

Row | Activity [3] | Activity [5] | Activity [6] | Activity [7] | Activity [8] | Structure (SMILES) | Activity [9] | Activity [10] | Activity [11] | Activity [12] | Ratio [13] | Activity [14] | Activity [15] | Activity [16] | Activity [17] | Activity [18] | Activity [19] | also measured
1 | Active | Active | Active | Active | Active | C=CC(=C)CC[C@H]1[C@]2(C)CCC[C@](C)(CO)[C@H]2[C@H](O)C[C@]1(C)O [ANDALUSOL] | 30.6 pmol/h | 19.1 nmol/min | 26 IU | 22.1 IU | 5.7 | 0.62 nmol | inactive | Active | Dose-dependent effect | Dose-dependent effect | < 10% | Activity [1]: Non-toxic; Activity [2]: Non-toxic; Ratio [4]: 1.4
2 | Active | Active | Active | Active | Active | CC1(C)CCC[C@H]2C1=CC[C@H]1C[C@@](C)([C@@H](O)CO)C[C@@H](O)[C@@]12C [LAGASCATRIOL] | 28.6 pmol/h | 15.8 nmol/min | 23.9 IU | 24.2 IU | 4.2 | 0.6 nmol | inactive | Active | Dose-dependent effect | Dose-dependent effect | < 10% | Activity [20]: Toxic; Activity [21]: Active; Activity [22]: Active
3 | inactive |  |  |  |  | CC1(C)CCC[C@]2(C)[C@@H]1C[C@H](O)[C@@]13C=C[C@@](CO)(C1)[C@H](O)C[C@@H]23 [CONCHITRIOL] | 15.9 pmol/h | 8.2 nmol/min | 18.8 IU | 18.8 IU | 2.3 | 0.91 nmol | inactive | Active |  |  | < 10% | Activity [23]: Active; Activity [24]: Toxic; Activity [25]: Active; Activity [26]: Active; Activity [27]: Active
